Results on 41 molecules are retold here after patent US20260200946A1, “KRAS(G12V) INHIBITORS” (Ranok Therapeutics (Hangzhou) Co. Ltd., priority 2022, published 2026).

In the first assay the target is T1, KRAS(G12V)/SOS1 (Homo sapiens, UniProt P01116, G12V).
T1 construct: purchased Cisbio 63ADK000CB18PEH
T1 sequence (P01116 1-188 isoform P01116-2 G12V): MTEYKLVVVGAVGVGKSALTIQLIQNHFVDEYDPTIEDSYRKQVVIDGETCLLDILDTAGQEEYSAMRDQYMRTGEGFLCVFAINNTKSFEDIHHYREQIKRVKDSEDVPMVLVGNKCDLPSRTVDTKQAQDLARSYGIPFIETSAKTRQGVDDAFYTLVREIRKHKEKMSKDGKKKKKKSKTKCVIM
The experiment in a line: KRAS(G12V)/SOS1 homogeneous time-resolved fluorescence (HTRF) assay. Particulars: absence of GTP; 4° C., 3 hours; read-out: HTRF of KRASG12V-SOS1. Format: binding. On the procedure: Binding of test compounds to KRAS(G12V) target protein, which in turn blocks KRAS(G12V) interaction with the SOS1 protein, was measured in the absences of GTP by homogeneous time-resolved fluorescence using the KRAS-G12V/SOS1 Binding Assay Kit (Cisbio, 63ADK000CB18PEH), following the manufacturer's instructions, except as noted. 3-fold serial dilutions of each test compound were prepared ranging from 20 µM to 1.02 nM. The test compound was mixed and incubated with reaction components, incubated in a sealed plate at 4° C. for 3 hours and fluorescence was measured using a PerkinElmer Envision plate reader. The KRAS(G12V)-SOS1 IC50 values (the concentration of 50% of the maximal inhibition) were calculated using GraphPad Prism 8.0 software.
(In general: Time-resolved FRET reads energy transfer from a long-lived donor to a nearby acceptor.)
In the case of `C#Cc1c(F)ccc2cc(O)cc(-c3ncc4c(N5CC6CCC(C5)N6)nc(OCC5(CN6CCC(F)CC6)CC5)nc4c3F)c12` [Example 1, 4-(4-(3,8-diazabicyclo[3.2.1]octan-3-yl)-8-fluoro-2-((1-((4-fluoropiperidin-1-yl)methyl)cyclopropyl)methoxy)pyrido[4,3-d]pyrimidin-7-yl)-5-ethynyl-6-fluoronaphthalen-2-ol], the IC50 lay within 0.1 to 1 µM.
The same measure, in the same setting: the value for `C#Cc1c(F)ccc2cc(O)cc(-c3ncc4c(N5CC6CCC(C5)N6C(=O)CC(C)C)nc(OCC5(CN6CCC(F)CC6)CC5)nc4c3F)c12` [Example 4] was 0.1 to 1 µM; that for `C#Cc1c(F)ccc2cc(O)cc(-c3nc(OC)c4c(N5CC6CCC(C5)N6C(=O)CC(F)(F)F)nc(OCC5(CN6CCC(F)CC6)CC5)nc4c3F)c12` [Example 20] was below 0.1 µM.
On to `C#Cc1c(F)ccc2cc(O)cc(-c3ncc4c(N5CC6CCC(C5)N6C(=O)NCC(C)(C)O)nc(OCC5(CN6CCC(F)CC6)CC5)nc4c3F)c12` [Example 53], for which the IC50 was below 0.1 µM.
On the same count and under the same terms, the value for `C#CCC(=O)N1C2CCC1CN(c1nc(OCC3(CN4CCC(F)CC4)CC3)nc3c(F)c(-c4cc(O)cc5ccc(F)c(C#C)c45)ncc13)C2` [Example 54] was below 0.1 µM.
On to `C#Cc1c(F)ccc2cc(O)cc(-c3nc(OC)c4c(N5CC6CCC(C5)N6C(=O)NC5CCCC5)nc(OCC5(CN6CCC(F)CC6)CC5)nc4c3F)c12` [Example 55], for which the IC50 was below 0.1 µM.
Still for that read-out and setting: the value for `C#Cc1c(F)ccc2cc(O)cc(-c3ncc4c(N5CC6CCC(C5)N6S(=O)(=O)NCCN(C)C)nc(OCC5(CN6CCC(F)CC6)CC5)nc4c3F)c12` [Example 56] was below 0.1 µM.

The test system of a further assay is NCIH727 cells. The experiment in a line: Cancer cell line proliferation (CellTiter-Glo), NCI-H727. It counts as cell-based. The settings on record: Homo sapiens, 72 h, NCIH727 lung carcinoid, heterozygous G12V. On the procedure: Cell lines were cultured essentially according to ATCC recommendations.
SW620 and NCIH727 cells were plated in 384-well tissue culture plates at 1,000 cells/well and incubated at 37° C./5% CO2 for 72 hr in 40 μl of media. […] Each cell line was then treated with test compounds at various concentrations with a final concentration of 0.5% DMSO/well, and then incubated at 37° C./5% CO2 for 72 hr. 40 μl of CellTiter-Glo® Reagent (Promega Corporation, Madison, WI) was added to each well and processed according manufacturer's protocol. Results were analyzed and IC50 values were calculated in GraphPad 8.0 software.
(In general: Cellular ATP, detected with luciferase, serves as a proxy for viable cell number.)
As usually defined, the EC50 is the concentration at which the effect is half-maximal. Low values mean an effect from little substance, high ones a need for much substance. With `C#Cc1c(F)ccc2cc(O)cc(-c3ncc4c(N5CC6CCC(C5)N6C(=O)CC(C)C)nc(OCC5(CN6CCC(F)CC6)CC5)nc4c3F)c12` [Example 4], the half-maximal effective concentration (EC50) was above 1 µM.
Same read-out and setting: under `C#Cc1c(F)ccc2cc(O)cc(-c3nc(OC)c4c(N5CC6CCC(C5)N6C(=O)NC(C)C(F)(F)F)nc(OCC5(CN6CC7CC7C6)CC5)nc4c3F)c12` (stereo not drawn) [Example 163] stands 0.1 to 1 µM; under `C#Cc1c(F)ccc2cc(O)cc(-c3nc(OC)c4c(N5CC6CCC(C5)N6C(=O)OCC)nc(OCC5(CN6CC7CC7C6)CC5)nc4c3F)c12` (stereo not drawn) [Example 164], 0.1 to 1 µM.
Same read-out and setting: under `C#Cc1c(F)ccc2cc(N)cc(-c3nc(OC)c4c(N5CC6CCC(C5)N6C(=S)NC(C)C#N)nc(OCC5(CN6CC7CC7C6)CC5)nc4c3F)c12` (stereo not drawn) [Example 166] stands above 1 µM.
In turn, `C#Cc1c(F)ccc2cc(O)cc(-c3nc(OC)c4c(N5CC6CCC(C5)N6C(=O)C5CC(F)(F)C5(F)F)nc(OCC5(CN6CC7CC7C6)CC5)nc4c3F)c12` (stereo not drawn) [Example 167] gave an EC50 above 1 µM.
Same read-out and setting: under `C#Cc1c(F)ccc2cc(O)cc(-c3nc(OC)c4c(N5CC6CCC(C5)N6C(=O)CCN(C)OC)nc(OCC5(CN6CC7CC7C6)CC5)nc4c3F)c12` (stereo not drawn) [Example 168] stands 0.1 to 1 µM; under `C#Cc1c(F)ccc2cc(O)cc(-c3nc(OC)c4c(N5CC6CCC(C5)C6C(=O)NCC(F)(F)F)nc(OCC5(CN6CC7CC7C6)CC5)nc4c3F)c12` (stereo not drawn) [Example 170], above 1 µM.
Take `C#Cc1c(F)ccc2cc(N)cc(-c3nc(OC)c4c(N5CC6CCC(C5)N6C(=O)C[C@@H](O)C(F)(F)F)nc(OCC5(CN6CC7CC7C6)CC5)nc4c3F)c12` (stereo partly drawn) [Example 171]: the EC50 lay in the range of 0.1 to 1 µM.
On the same count and under the same terms, under `Cc1cc(N)nc(-c2c(Cl)cc3c(N4CC5CCC(C4)N5C(=O)CCOC(F)(F)F)nc(OCC4(CN5CC6CC6C5)CC4)nc3c2F)c1C(F)(F)F` (stereo not drawn) [Example 174] stands above 1 µM; under `C#Cc1c(F)ccc2cc(O)cc(-c3nc(OC)c4c(N5CC6CCC(C5)N6C(=O)N5CC(OC(F)(F)F)C5)nc(OCC5(CN6CC7CC7C6)CC5)nc4c3F)c12` (stereo not drawn) [Example 175], 0.1 to 1 µM; under `C#Cc1c(F)ccc2cc(O)cc(-c3nc(OC)c4c(N5CC6CCC(C5)N6C(=O)C[C@@H](C)C#N)nc(OCC5(CN6CC7CC7C6)CC5)nc4c3F)c12` (stereo partly drawn) [Example 177], below 0.1 µM.
Turning to `C#Cc1c(F)ccc2cc(OC(=O)C(C)C)cc(-c3nc(OC)c4c(N5CC6CCC(C5)N6C(=O)C(C#N)CC#N)nc(OCC5(CN6CC7CC7C6)CC5)nc4c3F)c12` (stereo not drawn) [Example 179], the EC50 was 0.1 to 1 µM.
Still for that read-out and setting: under `C#Cc1c(F)ccc2cc(O)cc(-c3nc(OC)c4c(N5CC6CCC(C5)N6C(=O)C[C@H](O)C(F)(F)F)nc(OCC5(CN6CC7CC7C6)CC5)nc4c3F)c12` (stereo partly drawn) [Example 180] stands 0.1 to 1 µM.
On the same count and under the same terms, under `C#Cc1c(F)ccc2cc(O)cc(-c3nc(OC)c4c(N5CC6CCC(C5)N6C(=O)CC(C)C(F)(F)F)nc(OCC5(CN6CC7CC7C6)CC5)nc4c3F)c12` (stereo not drawn) [Example 181] stands 0.1 to 1 µM; under `C#Cc1c(F)ccc2cc(O)cc(-c3nc(OC)c4c(N5CC6CCC(C5)N6C(=O)NNC)nc(OCC5(CN6CC7CC7C6)CC5)nc4c3F)c12` (stereo not drawn) [Example 182], 0.1 to 1 µM.
Still for that read-out and setting: the value for `C#Cc1c(F)ccc2cc(O)cc(-c3nc(OC)c4c(N5CC6CCC(C5)N6C(=O)NC56CC(F)(C5)C6)nc(OCC5(CN6CC7CC7C6)CC5)nc4c3F)c12` (stereo not drawn) [Example 183] was below 0.1 µM; that for `C#Cc1c(F)ccc2cc(O)cc(-c3nc(OC)c4c(N5CC6CCC(C5)N6C(=O)NC56CC(C(F)(F)F)(C5)C6)nc(OCC5(CN6CC7CC7C6)CC5)nc4c3F)c12` (stereo not drawn) [Example 184] was 0.1 to 1 µM.
Take `C#Cc1c(F)ccc2cc(O)cc(-c3nc(OC)c4c(N5CC6CCC(C5)N6C(=O)C56CC(F)(C5)C6)nc(OCC5(CN6CC7CC7C6)CC5)nc4c3F)c12` (stereo not drawn) [Example 185]: the concentration for a half-maximal effect (EC50) lay in the range of 0.1 to 1 µM.
In turn, `C#Cc1c(F)ccc2cc(O)cc(-c3nc(OC)c4c(N5CC6CCC(C5)N6C(=O)C(C#N)CC5CC5)nc(OCC5(CN6CC7CC7C6)CC5)nc4c3F)c12` (stereo not drawn) [Example 186] came in with an EC50 above 1 µM.
In turn, `C#Cc1c(F)ccc2cc(O)cc(-c3nc(OC)c4c(N5CC6CCC(C5)N6C(=O)NCC(O)C(F)(F)F)nc(OCC5(CN6CC7CC7C6)CC5)nc4c3F)c12` (stereo not drawn) [Example 187] had a 50% effective concentration (EC50) of 0.1 to 1 µM.
On the same count and under the same terms, the value for `C#Cc1c(F)ccc2cc(O)cc(-c3nc(OC)c4c(N5CC6CCC(C5)N6C(=O)N[C@H](C)C(F)(F)F)nc(OCC5(CN6CC7CC7C6)CC5)nc4c3F)c12` (stereo partly drawn) [Example 188] was 0.1 to 1 µM; that for `C#Cc1c(F)ccc2cc(O)cc(-c3nc(OC)c4c(N5CC6CCC(C5)N6C(=O)NC(C#N)C(N)=O)nc(OCC5(CN6CC7CC7C6)CC5)nc4c3F)c12` (stereo not drawn) [Example 189] was above 1 µM; that for `C#Cc1c(F)ccc2cc(O)cc(-c3nc(OC)c4c(N5CC6CCC(C5)N6C(=O)N[C@H]5C[C@@H](C#N)C5)nc(OCC5(CN6CC7CC7C6)CC5)nc4c3F)c12` (stereo partly drawn) [Example 190] was 0.1 to 1 µM.
Still for that read-out and setting: under `C#Cc1c(F)ccc2cc(O)cc(-c3nc(OC)c4c(N5CC6CCC(C5)N6C(=O)N[C@H]5C[C@H](C#N)C5)nc(OCC5(CN6CC7CC7C6)CC5)nc4c3F)c12` (stereo partly drawn) [Example 191] stands 0.1 to 1 µM.
Molecule `C#Cc1c(F)ccc2cc(O)cc(-c3nc(OC)c4c(N5CC6CCC(C5)N6C(=O)NC(C#N)C5CC5)nc(OCC5(CN6CC7CC7C6)CC5)nc4c3F)c12` (stereo not drawn) [Example 192] came in with a 50% effective concentration (EC50) of 0.1 to 1 µM.
The same measure, in the same setting: under `C#Cc1c(F)ccc2cc(O)cc(-c3nc(OC)c4c(N5CC6CCC(C5)N6C(=O)CC(C)(O)C(F)(F)F)nc(OCC5(CN6CC7CC7C6)CC5)nc4c3F)c12` (stereo not drawn) [Example 193] stands 0.1 to 1 µM; under `C#Cc1c(F)ccc2cc(O)cc(-c3nc(OC)c4c(N5CC6CCC(C5)N6C(=O)NC56CC(C#N)(C5)C6)nc(OCC5(CN6CC7CC7C6)CC5)nc4c3F)c12` (stereo not drawn) [Example 194], 0.1 to 1 µM; under `C#Cc1c(F)ccc2cc(O)cc(-c3nc(OC)c4c(N5CC6CCC(C5)N6C(=O)N[C@@H]5CCC[C@@H]5C#N)nc(OCC5(CN6CC7CC7C6)CC5)nc4c3F)c12` (stereo partly drawn) [Example 195], 0.1 to 1 µM.
Same read-out and setting: the value for `C#Cc1c(F)ccc2cc(O)cc(-c3nc(OC)c4c(N5CC6CCC(C5)N6C(=O)NC5(C#N)COC5)nc(OCC5(CN6CC7CC7C6)CC5)nc4c3F)c12` (stereo not drawn) [Example 196] was 0.1 to 1 µM; that for `C#Cc1c(F)ccc2cc(O)cc(-c3nc(OC)c4c(N5CC6CCC(C5)N6C(=O)NC5(C#N)CCC5)nc(OCC5(CN6CC7CC7C6)CC5)nc4c3F)c12` (stereo not drawn) [Example 197] was below 0.1 µM; that for `C#Cc1c(F)ccc2cc(O)cc(-c3nc(OC)c4c(N5CC6CCC(C5)N6C(=O)NC56CC(C5)C6)nc(OCC5(CN6CC7CC7C6)CC5)nc4c3F)c12` (stereo not drawn) [Example 198] was below 0.1 µM.
Still for that read-out and setting: under `C#Cc1c(F)ccc2cc(O)cc(-c3nc(OC)c4c(N5CC6CCC(C5)N6C(=O)NC5COC5)nc(OCC5(CN6CC7CC7C6)CC5)nc4c3F)c12` (stereo not drawn) [Example 199] stands below 0.1 µM.
Molecule `C#Cc1c(F)ccc2cc(O)cc(-c3nc(OC)c4c(N5CC6CCC(C5)N6C(=O)N5CC(F)C5)nc(OCC5(CN6CC7CC7C6)CC5)nc4c3F)c12` (stereo not drawn) [Example 200] had a half-maximal effective concentration (EC50) below 0.1 µM.
On the same count and under the same terms, under `C#Cc1c(F)ccc2cc(O)cc(-c3nc(OC)c4c(N5CC6CCC(C5)N6C(=O)N5CC(C(F)F)C5)nc(OCC5(CN6CC7CC7C6)CC5)nc4c3F)c12` (stereo not drawn) [Example 201] stands 0.1 to 1 µM.

Still in this assay, the particulars now being: Homo sapiens, NCIH727 lung carcinoid, heterozygous G12V, 72 hr.
As to `C#Cc1c(F)ccc2cc(O)cc(-c3nc(OC)c4c(N5CC6CCC(C5)N6C(=O)OCC(F)(F)F)nc(OCC5(CN6CC7CC7C6)CC5)nc4c3F)c12` (stereo not drawn) [Example 162], the concentration for a half-maximal effect (EC50) lay in the range of 0.1 to 1 µM.
